Measured values reported in paper PMC4388511 (PLoS ONE, 2015).
Like-named read-outs stand apart in the source and are kept apart here.

Key:
[1] = target: T1, serotonin 5-HT2C receptor (Homo sapiens, UniProt P28335); assay: facilitation of morphine-induced MOP-YFP endocytosis in HEK293 cells co-expressing 5-HT2C, at […]; format: cell-based
T1 construct: gene HTR2C; c-myc-5-HT2C-Cerulean

[2] = target: T1, serotonin 5-HT2C receptor; assay: as above; format: cell-based; remark: listed apart in the source

T1 sequence (P28335 33-458): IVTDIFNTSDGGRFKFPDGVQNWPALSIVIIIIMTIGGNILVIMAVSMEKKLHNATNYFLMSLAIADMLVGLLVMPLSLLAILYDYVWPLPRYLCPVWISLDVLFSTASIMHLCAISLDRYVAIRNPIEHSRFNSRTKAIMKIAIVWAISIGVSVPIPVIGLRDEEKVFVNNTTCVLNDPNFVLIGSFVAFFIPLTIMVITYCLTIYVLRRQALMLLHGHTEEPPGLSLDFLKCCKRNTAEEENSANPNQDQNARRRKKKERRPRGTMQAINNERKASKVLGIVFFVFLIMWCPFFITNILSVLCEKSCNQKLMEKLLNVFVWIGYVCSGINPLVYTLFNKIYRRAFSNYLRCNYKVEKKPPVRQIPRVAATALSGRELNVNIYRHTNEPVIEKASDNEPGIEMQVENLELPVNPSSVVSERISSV
T1 sequence (P35372 whole entry partner): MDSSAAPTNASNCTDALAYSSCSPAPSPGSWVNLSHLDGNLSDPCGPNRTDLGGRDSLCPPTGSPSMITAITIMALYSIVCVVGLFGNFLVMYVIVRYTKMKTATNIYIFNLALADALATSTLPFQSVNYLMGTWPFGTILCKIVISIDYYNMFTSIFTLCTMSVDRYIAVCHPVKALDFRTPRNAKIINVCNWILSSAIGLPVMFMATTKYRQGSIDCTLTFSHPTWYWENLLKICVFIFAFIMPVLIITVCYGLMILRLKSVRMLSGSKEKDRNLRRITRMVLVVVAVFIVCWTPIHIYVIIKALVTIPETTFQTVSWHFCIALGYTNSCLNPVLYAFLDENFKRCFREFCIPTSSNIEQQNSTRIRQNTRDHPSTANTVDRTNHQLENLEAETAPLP

COc1cc(CC(C)N)c(OC)cc1I (racemic) [DOI]
Emax (no. vesicles/cell) [1]: 8.18 ± 1.31 vesicles/cell (Emax, with morphine)

O=C1Nc2cc(Cl)c(Cl)cc2N2CCNCC12 (centres unmarked) [WAY161503]
Emax (no. vesicles/cell) [2]: 9.08 ± 1.88 vesicles/cell (Emax, with morphine)
